Biological target: CDK2 (UniProt P24941)
Test: Enzyme Assay
Conditions: concentration not given here

Row | inhibition [%] | SMILES
1 | 100 | COc1ccc(C(=O)Nc2sc(C)c(C)c2C(N)=O)cc1OC
2 | 100 | Cc1sc(NC(=O)c2ccccc2C(F)(F)F)c(C(N)=O)c1C
3 | 100 | CC(c1ccccc1)c1cc(C(N)=O)c(NC(=O)c2cc3ccccc3n2C)s1 (stereo not drawn)
4 | 100 | CC(=O)Nc1ccc(Br)c(C(=O)Nc2sc3c(c2C(N)=O)CCN(C)C3)c1
5 | 100 | Cc1c(O)cccc1C(=O)Nc1sc(-c2ccccc2)cc1C(N)=O
6 | 100 | CCCC(Nc1sc(Cc2ccccc2)cc1C(N)=O)C(=O)NC(N)=O (stereo not drawn)
7 | 100 | Cc1sc(NC(=O)c2nc3ccccc3nc2O)c(C(N)=O)c1C
8 | 100 | Cc1sc(NC(=O)c2ccc(-n3cccc3)cc2)c(C(N)=O)c1C
9 | 100 | COc1ccc(C(=O)Nc2sc(-c3ccccc3)cc2C(N)=O)cc1
10 | 100 | C#CC(=O)N(c1ccccc1)c1sc(C(C)C)cc1C(N)=O
11 | 100 | COc1ccc(/C=C\C(=O)Nc2scc(C)c2C(N)=O)cc1OC
12 | 100 | Cc1sc(NC(=O)Cc2cn(C)c3ccccc23)c(C(N)=O)c1C
13 | 100 | CN1CCc2c(sc(NC(=O)Cc3c[nH]c4ccc(F)cc34)c2C(N)=O)C1
14 | 100 | Cc1ccc(C)c(C(=O)Nc2sc(C(C)C)cc2C(N)=O)c1
15 | 100 | COc1cc(/C=C\C(=O)Nc2scc(C)c2C(N)=O)cc(OC)c1
16 | 100 | CC(=O)NC(=O)C(C)Nc1sc(C(C)C)cc1C(N)=O (stereo not drawn)
17 | 100 | NC(=O)c1c(NC(=O)c2c[nH]cn2)sc2c1CCCC2
18 | 100 | NC(=O)c1cc(Cc2ccccc2)sc1-n1cnc2ncnc(C(=O)O)c21
19 | 100 | CC(C)c1cc(C(N)=O)c(NC(=O)/C=C/c2c[nH]cn2)s1
20 | 100 | NC(=O)c1c(NC(=O)CCCl)sc2c1CCCC2
21 | 100 | COc1cc(OC)c(C(=O)Nc2scc(C)c2C(N)=O)cc1OC
22 | 100 | COc1ccc(C(=O)Nc2sc(C)c(C)c2C(N)=O)cc1Cl
23 | 100 | NC(=O)c1cc(-c2ccccc2)sc1NC(=O)c1ccc(Cl)cc1
24 | 100 | CC(c1ccccc1)c1cc(C(N)=O)c(NC(=O)c2cccc3c2C(=O)N=N3)s1 (stereo not drawn)
25 | 100 | CNC(=O)CN(C(=O)c1ccccc1)c1scc(C)c1C(N)=O
26 | 100 | NC(=O)c1cc(-c2ccccc2)sc1NC(=O)Cc1ccccc1O

Row | inhibition [%] | SMILES
27 | 100 | Cc1cc(C(=O)Nc2sc3c(c2C(N)=O)CCCC3)no1
28 | 100 | Cc1ccc(C(=O)Nc2sc(-c3ccccc3)cc2C(N)=O)c(O)c1
29 | 100 | CC(c1ccccc1)c1cc(C(N)=O)c(NC(=O)c2nccc3ccccc23)s1 (stereo not drawn)
30 | 100 | Cc1sc(NC(=O)CNc2cccnc2)c(C(N)=O)c1C
31 | 100 | CC(C)c1cc(C(N)=O)c(NC(=O)c2ccc(F)cc2)s1
32 | 100 | COc1ccc2cc(C(=O)Nc3scc(C)c3C(N)=O)[nH]c2c1
33 | 100 | NC(=O)c1cc(Cc2ccccc2)sc1NC(=O)c1c[nH]c2ccccc12
34 | 100 | CC(c1ccccc1)c1cc(C(N)=O)c(NC(=O)c2cccc(Cl)c2O)s1 (stereo not drawn)
35 | 100 | Cc1oncc1C(=O)Nc1sc2c(c1C(N)=O)CCCC2
36 | 100 | CN(C)c1ccc(C(=O)Nc2sc(Cc3ccccc3)cc2C(N)=O)cc1
37 | 100 | CN1CCc2c(sc(NC(=O)c3cc4cc(Cl)ccc4[nH]3)c2C(N)=O)C1
38 | 100 | NC(=O)c1cc(-c2ccccc2)sc1NC(=O)CCc1cccs1
39 | 100 | Cc1sc(NC(=O)/C=C\c2ccc(N(C)C)cc2)c(C(N)=O)c1C
40 | 100 | COc1cccc(C(=O)Nc2sc(-c3ccccc3)cc2C(N)=O)c1
41 | 100 | NC(=O)c1cc(-c2ccccc2)sc1NC(=O)C(O)c1ccccc1 (stereo not drawn)
42 | 100 | CC(C)c1cc(C(N)=O)c(NC(=O)C2CC3C=CC2C3)s1 (stereo not drawn)
43 | 100 | NC(=O)c1c(NC(=O)c2ccncc2)sc2c1CCCC2
44 | 100 | Cc1ccc2[nH]c(C(=O)Nc3sc(C)c(C)c3C(N)=O)cc2c1
45 | 100 | NC(=O)c1c(NC(=O)c2ccsc2)sc2c1CCCC2
46 | 100 | Cc1csc(NC(=O)C2c3ccccc3-c3ccccc32)c1C(N)=O
47 | 100 | CC(C)C(=O)Nc1sc2c(c1C(N)=O)CCCC2
48 | 100 | CC(=O)Nc1ccc(C(=O)Nc2sc(C(C)c3ccccc3)cc2C(N)=O)cc1 (stereo not drawn)
49 | 100 | CCC(=O)Nc1sc2c(c1C(N)=O)CCCC2
50 | 100 | Cc1sc(NC(=O)c2cc(Cl)cc(Cl)c2)c(C(N)=O)c1C
51 | 100 | CCN(CC)CCC(=O)Nc1sc(C)c(C)c1C(N)=O
52 | 100 | CC(C)C(C(=O)O)N(C(N)=O)c1sc(Cc2ccccc2)cc1C(N)=O (stereo not drawn)

Row | inhibition [%] | SMILES
53 | 100 | CCCN(C(=O)/C=C\C(N)=O)c1sc(-c2ccccc2)cc1C(N)=O
54 | 100 | CC(C)c1cc(C(N)=O)c(NC(=O)/C=C/c2ccncc2)s1
55 | 100 | COc1ccc2[nH]c(C)c(CC(=O)Nc3sc4c(c3C(N)=O)CCN(C)C4)c2c1
56 | 100 | CC(=O)Nc1sc2c(c1C(N)=O)CCCC2
57 | 100 | CN1CCc2c(sc(NC(=O)CCCc3c[nH]c4ccccc34)c2C(N)=O)C1
58 | 100 | Cc1sc(NC(=O)Cc2ccc3c(c2)OCO3)c(C(N)=O)c1C
59 | 100 | CC(=O)N[C@@H](CC(N)=O)C(=O)Nc1sc(C(C)c2ccccc2)cc1C(N)=O (stereo partly drawn)
60 | 100 | COc1cc(C(=O)Nc2sc(Cc3ccccc3)cc2C(N)=O)ccc1O
61 | 100 | Cc1sc(NC(=O)C2(c3ccccc3)CCCC2)c(C(N)=O)c1C
62 | 100 | COc1ccc(C(=O)Nc2sc(Cc3ccccc3)cc2C(N)=O)c(O)c1
63 | 100 | CC(c1ccccc1)c1cc(C(N)=O)c(NC(=O)CNC(=O)c2ccccc2)s1 (stereo not drawn)
64 | 100 | Cc1cc(C(=O)Nc2sc(Cc3ccccc3)cc2C(N)=O)cc(C)c1O
65 | 100 | Cc1sc(NC(=O)Cc2c[nH]c3ccccc23)c(C(N)=O)c1C
66 | 100 | CCC(=O)C(=O)Nc1sc2c(c1C(N)=O)CCCC2
67 | 100 | Cc1sc(NC(=O)c2ccc(Cl)c(Cl)c2)c(C(N)=O)c1C
68 | 100 | CN1CCc2c(sc(NC(=O)Cc3c[nH]c4cccc(Cl)c34)c2C(N)=O)C1
69 | 100 | CC(c1ccccc1)c1cc(C(N)=O)c(NC(=O)c2cccc3ccccc23)s1 (stereo not drawn)
70 | 100 | Cn1cccc1C(=O)Nc1sc2c(c1C(N)=O)CCCC2
71 | 100 | CC(C)c1cc(C(N)=O)c(NC(=O)c2ccc(C#N)cc2)s1
72 | 100 | COc1ccc(OC)c(C(=O)Nc2sc(C)c(C)c2C(N)=O)c1
73 | 100 | CC(C)c1cc(C(N)=O)c(NC(=O)CC2CCCC2)s1
74 | 100 | CC(c1ccccc1)c1cc(C(N)=O)c(NC(=O)C(c2ccccc2)C(C)C)s1 (stereo not drawn)
75 | 100 | COc1cc(OC)cc(C(=O)Nc2sc(C)c(C)c2C(N)=O)c1
76 | 100 | CC(C)c1cc(C(N)=O)c(NC(=O)c2ccccc2F)s1
77 | 100 | NC(=O)c1cc(-c2ccccc2)sc1NC(=O)C1(c2ccccc2)CC1
78 | 100 | Cc1sc(NC(=O)/C=C\c2ccc3c(c2)OCO3)c(C(N)=O)c1C

Row | inhibition [%] | SMILES
79 | 100 | CC(C)c1cc(C(N)=O)c(NC(=O)C2CNC(=O)N2)s1 (stereo not drawn)
80 | 100 | Cc1csc(NC(=O)CNC(=O)/C=C/c2ccco2)c1C(N)=O
81 | 100 | CC(C)c1ccc(C(=O)Nc2sc(Cc3ccccc3)cc2C(N)=O)cc1
82 | 100 | CN1CCc2c(sc(NC(=O)C(Cc3ccccc3)NC(=O)c3ccccc3)c2C(N)=O)C1 (stereo not drawn)
83 | 100 | COc1cccc(O)c1C(=O)Nc1sc(Cc2ccccc2)cc1C(N)=O
84 | 100 | CC(=O)N1CCC(O)C1C(=O)Nc1sc(C(C)c2ccccc2)cc1C(N)=O (stereo not drawn)
85 | 100 | CC(c1ccccc1)c1cc(C(N)=O)c(NC(=O)CCC(=O)c2ccccc2)s1 (stereo not drawn)
86 | 100 | Cc1sc(NC(=O)c2ccc(C(F)(F)F)cc2)c(C(N)=O)c1C
87 | 100 | NC(=O)c1cc(Cc2ccccc2)sc1NC(=O)c1n[nH]c2ccccc12
88 | 100 | NC(=O)c1c(NC(=O)c2ccccn2)sc2c1CCCC2
89 | 100 | Cc1csc(NC(=O)Cc2csc3ccccc23)c1C(N)=O
90 | 100 | Cc1ccc(O)c(C(=O)Nc2sc(-c3ccccc3)cc2C(N)=O)c1
91 | 100 | Cc1csc(NC(=O)c2cnn(-c3ccccc3)c2C)c1C(N)=O
92 | 100 | Cc1cccc(C(=O)Nc2sc3c(c2C(N)=O)CCCC3)c1
93 | 100 | CC(C)=NOC(C)C(=O)Nc1sc(C(C)C)cc1C(N)=O (stereo not drawn)
94 | 100 | CC(C)c1cc(C(N)=O)c(NC(=O)c2cccc(F)c2)s1
95 | 100 | CC1NC(=O)NC1CCCCCC(=O)Nc1sc2c(c1C(N)=O)CCN(C)C2 (stereo not drawn)
96 | 100 | CC(NC(=O)C(C)Nc1sc(-c2ccccc2)cc1C(N)=O)C(=O)O (stereo not drawn)
97 | 100 | CN(C)CC(=O)Nc1sc2c(c1C(N)=O)CCCC2
98 | 100 | Cc1ccccc1C(=O)Nc1sc2c(c1C(N)=O)CCCC2
99 | 100 | COc1cc(C(=O)Nc2sc(Cc3ccccc3)cc2C(N)=O)ccc1C
100 | 100 | COc1cc(C(=O)Nc2sc3c(c2C(N)=O)CCN(C)C3)cc(OC)c1OC
101 | 100 | NC(=O)c1cc(-c2ccccc2)sc1NC(=O)C(F)c1ccccc1 (stereo not drawn)
102 | 100 | CC#CC(=O)Nc1sc2c(c1C(N)=O)CCCC2
103 | 100 | Cc1csc(NC(=O)CCCc2cccs2)c1C(N)=O
